Test results published in US20220259164A1, “USE OF AMINOTHIOL COMPOUNDS AS CEREBRAL NERVE OR HEART PROTECTIVE AGENT” (SHANGHAI KECHOW PHARMA, INC., priority 2019, published 2022).
Several values for one entry are separate records, joined by “and”; a condition that tells them apart may be missing. Identical values can stand only once. Where a SMILES comes first, the peptide text is derived from it. [ ]: non-standard residue; d: D form. NMeC = CN[C@@H](CS)C(=O)O

Columns and labels:
[1] = tested on: SD rat cerebral ischemia reperfusion injury model (MCAO); assay: Neurobehavioral evaluation (5-point Longa/Bederson score) in rat ischemic stroke model (MCAO); assay type: in vivo; set-up: key to Neurological function score After modeling: Longa/Bederson 5-point scale (0-4); higher = more severe deficit; conditions: for Neurological function score After modeling: individual rats
Description: Healthy male SPF grade SD rats (body weight 250-300 g) were selected. […] (2) A midline neck incision was made to expose the right common carotid artery, internal carotid artery and external carotid artery. A 6-0 silk thread was used to ligate the distal end of the external carotid artery at 4 mm from the bifurcation of the common carotid artery, another 6-0 silk thread was inserted at the external carotid artery, and a slipknot was tied near the bifurcation of the common carotid artery. (3) An arterial clamp was used to clamp the common carotid artery. […] (4) The thread embolism was removed 90 min after ischemia, the proximal end of the external artery was ligated with a 6-0 silk thread, the neck wound was sutured with a 3-0 silk thread, the wound was disinfected with povidone iodine, the rats were placed on a heating pad, and after being awake, they were placed in a constant temperature rearing box for rearing. […] The experimental animals were scored for signs of neurological function deficit before and after modeling. The scoring standard was given by reference to the 5-point system of Longa and Bederson. The scoring was performed 24 h after the animals were awake from anesthesia. The higher the score, the more severe the behavioral disorder of the animals. 0 point: No nerve damage symptoms […] Inability to fully extend the contralateral front paw […] Turning in a circle to the opposite side […] Falling over to the opposite side 4 points: Inability to walk spontaneously, and loss of consciousness In a manner same as in Example 1, experimental animals were selected, except that the experiment was divided into seven groups (i.e., groups […], and G, among which groups C, D, and E were given different dosages of administration from Example 1, group F was given edaravone, and group G was given amifostine).

[2] = tested on: rat myocardial infarction model (coronary ligation 30 min, reperfusion); assay: Myocardial infarction model: myocardial enzyme LDH in serum; assay type: in vivo; conditions: for Improvement rate (%) of LDH: compared with model group; for LDH: serum, x ± s, n = 10
Method: 1. The rats were grouped and administered according to the following methods (2) Compound B (i.v.) at 100 mg/kg (3) Compound A (i.v.) at 100 mg/kg (4) Compound A (oral) at 500 mg/kg (5) Isosorbide mononitrate injection (i.v.) at 1 mg/kg (equivalent to clinical equivalent dose). There were 10 rats in each group, and the rats were administered intravenously immediately after 30 min of ischemia and reperfusion, i.v. 10% 1 min+i.v. drip 90% 30 min. The administration volume was 2 ml/rat. Compound A (oral) at 500 mg/kg was administered intragastrically 2 h after reperfusion when the animal was awake, and the administration volume was 10 ml/kg. Note: Compounds A and B used in this example were in the form of hydrochloride salts thereof. Given intraperitoneal injection of 3% sodium pentobarbital at 60 mg/kg for general anesthesia, the rats were fixed on an operating table in the supine position. The surgical field of the anterolateral chest was depilated and routinely disinfected. The skin and muscular layer were cut open, purse-string suture was performed on the muscular layer, the chest was opened on the left at the fourth intercostal space, and the heart was pulled out with a ring-shaped retractor. At the position of the anterior descending coronary artery 3-4 mm below the left atrial appendage, a 6/0 damage-free silk thread was threaded, and a nylon thread with a diameter of 1.6 mm was juxtaposed and ligated together with the anterior descending coronary artery, while the other end was left outside the body for later use. The heart was placed back into the chest cavity, the air in the chest cavity was emptied, and the chest cavity was closed. 30 min after ligation, the nylon thread was carefully removed for reperfusion. Compared with the normal lead II electrocardiogram (ECG-II), ST segment elevation in ECG-II by 0.1 mV or more 30 min after coronary artery ligation was regarded as successful ischemia. […] Blood was collected from the rats through the abdominal aorta and centrifuged at 3000 rpm×10 min at 4° C., and the upper serum was taken to determine LDH by enzyme-linked immunosorbent assay.

[3] = tested on: bleomycin (BLM)-induced scleroderma mouse model; assay: Hydroxyproline level in skin lesion, BLM-induced scleroderma mouse model; assay type: in vivo, mice; conditions: compound A (hydrochloride) 600 mg/kg/d by gavage or compound B (trifluoroacetate) 200 mg/kg/d i.p., 28 days with BLM
Description: (§1) Materials: C57BL/6 female mice, weighing 20-25 g, were purchased from Shanghai SLAC Laboratory Animal Co., Ltd. Using a random number table method, 24 mice were divided into a blank control group (1), a scleroderma model group (2), a scleroderma+compound A treatment group (3), and a scleroderma+compound B treatment group (4), with 6 mice in each group. Bleomycin (BLM) was purchased from Sigma. An H-E staining kit was purchased from Beijing Solarbio Science & Technology Co., Ltd. Compound A used in this example was in the form of a hydrochloride thereof, and compound B was in the form of a trifluoroacetate thereof.
(§2) Method: The intended injection site (area 1 cm^2) of the mice was shaved using an electric shaver. […] Conventional iodine tincture was used to disinfect the back skin of the mice, and a local diseased skin tissue was surgically cut, fixed in 4% paraformaldehyde, embedded in paraffin, sectioned, and analyzed by H-E staining. […]
(§3) Method: Part of the skin lesion tissue of the mice was taken, and the contents of hydroxyproline and hydrogen peroxide in the skin lesion region were detected according to the requirements in the kit instructions.

[4] = tested on: bleomycin (BLM)-induced scleroderma mouse model; assay: H2O2 level in skin lesion, BLM-induced scleroderma mouse model; assay type: in vivo, mice; conditions: compound A (hydrochloride) 600 mg/kg/d by gavage or compound B (trifluoroacetate) 200 mg/kg/d i.p., 28 days with BLM
Description: as §1, §2, §3

[5] = Example 2 group D: compound A (trifluoroacetate) 400 mg/kg p.o. 2.5 h before reperfusion, 400 mg/kg
[6] = Example 2 group E: compound A (trifluoroacetate) 800 mg/kg p.o. 2.5 h before reperfusion, 800 mg/kg
[7] = compound A (hydrochloride) i.v. 100 mg/kg
[8] = compound A (hydrochloride) oral 500 mg/kg
[9] = Example 2 group C: compound B (trifluoroacetate) 100 mg/kg i.p. 5 min before reperfusion, 100 mg/kg
[10] = compound B (hydrochloride) i.v. 100 mg/kg

Compound	% Behavioral improvement ([1]; Example 1 group E: compound A (trifluoroacetate) 1600 mg/kg p.o. 2.5 h before reperfusion, 1600 mg/kg) [%]	Neurological function score After modeling ([1]; Example 1 group E: compound A (trifluoroacetate) 1600 mg/kg p.o. 2.5 h before reperfusion, 24 h, 1600 mg/kg)	% Behavioral improvement [1, 5] [%]	Neurological function score After modeling [1, 5]	% Behavioral improvement [1, 6] [%]	Neurological function score After modeling [1, 6]	Improvement rate (%) of LDH [2, 7] [%]	LDH [2, 7] [U/L]	Improvement rate (%) of LDH [2, 8] [%]	LDH [2, 8] [U/L]	Level of hydroxyproline in the skin lesion site [3]	Concentration of H2O2 in the skin [4]	% Behavioral improvement ([1]; Example 1 group C: compound B (trifluoroacetate) 200 mg/kg i.p. 5 min before reperfusion, 200 mg/kg) [%]	Neurological function score After modeling ([1]; Example 1 group C: compound B (trifluoroacetate) 200 mg/kg i.p. 5 min before reperfusion, 24 h, 200 mg/kg)	% Behavioral improvement ([1]; Example 1 group D: compound B (trifluoroacetate) 200 mg/kg i.p. during ischemia and 200 mg/kg i.p. 5 min before reperfusion) [%]	Neurological function score After modeling ([1]; Example 1 group D: compound B (trifluoroacetate) 200 mg/kg i.p. during ischemia and 200 mg/kg i.p. 5 min before reperfusion, 24 h)	% Behavioral improvement [1, 9] [%]	Neurological function score After modeling [1, 9]	Improvement rate (%) of LDH [2, 10] [%]	LDH [2, 10] [U/L]
CNC(=O)[C@H](CS)NC(=O)[C@H](CS)NC [Compound A, (R)-3-mercapto-N—((R)-3-mercapto-1-(methylamino)-1-oxoprop-2-yl)-2-(methylamino)propionamide] (H-[NMeC]-Cys-NHMe)	77.8	1 (2×) and 0	46.99	2 (3×) and 1 (3×)	59.01	1 (5×) and 2	19.9	1521.6 ± 353.6	25.8	1408 ± 308.7	down-regulated	reduced								
CNC(=O)[C@H](CS)NC(=O)[C@H](CS)NC(=O)[C@H](CS)NC [Compound B, (R)-3-mercapto-N—((R)-3-mercapto-1-(((R)-3-mercapto-1-(methylamino)-1-oxoprop-2-yl)amino)-1-oxoprop-2-yl)-2-(methylamino)propionamide] (H-[NMeC]-Cys-Cys-NHMe)											down-regulated	reduced	66.7	0 and 1 (3×) and 2	66.7	1	29.32	1 and 2 (4×) and 3	22.2	1476.7 ± 282.4
